According to patent US20240417428A1, “POLYPEPTIDE FOR INHIBITING TRPM8 AND USE THEREOF” (ZHEJIANG UNIVERSITY, priority 2021, published 2024):
Entries after “also recorded” stand apart in the source; their conditions may differ. Where a SMILES comes first, the peptide text is derived from it.

Legend:
TRPM2 = target: T1, TRPM2 (Homo sapiens, UniProt O94759); assay: Electrophysiological recording, ligand activation of TRPM2; type: cell-based
T1 construct: expressed in transfected cells; host or cells: HEK293T
T1 sequence (O94759 whole entry): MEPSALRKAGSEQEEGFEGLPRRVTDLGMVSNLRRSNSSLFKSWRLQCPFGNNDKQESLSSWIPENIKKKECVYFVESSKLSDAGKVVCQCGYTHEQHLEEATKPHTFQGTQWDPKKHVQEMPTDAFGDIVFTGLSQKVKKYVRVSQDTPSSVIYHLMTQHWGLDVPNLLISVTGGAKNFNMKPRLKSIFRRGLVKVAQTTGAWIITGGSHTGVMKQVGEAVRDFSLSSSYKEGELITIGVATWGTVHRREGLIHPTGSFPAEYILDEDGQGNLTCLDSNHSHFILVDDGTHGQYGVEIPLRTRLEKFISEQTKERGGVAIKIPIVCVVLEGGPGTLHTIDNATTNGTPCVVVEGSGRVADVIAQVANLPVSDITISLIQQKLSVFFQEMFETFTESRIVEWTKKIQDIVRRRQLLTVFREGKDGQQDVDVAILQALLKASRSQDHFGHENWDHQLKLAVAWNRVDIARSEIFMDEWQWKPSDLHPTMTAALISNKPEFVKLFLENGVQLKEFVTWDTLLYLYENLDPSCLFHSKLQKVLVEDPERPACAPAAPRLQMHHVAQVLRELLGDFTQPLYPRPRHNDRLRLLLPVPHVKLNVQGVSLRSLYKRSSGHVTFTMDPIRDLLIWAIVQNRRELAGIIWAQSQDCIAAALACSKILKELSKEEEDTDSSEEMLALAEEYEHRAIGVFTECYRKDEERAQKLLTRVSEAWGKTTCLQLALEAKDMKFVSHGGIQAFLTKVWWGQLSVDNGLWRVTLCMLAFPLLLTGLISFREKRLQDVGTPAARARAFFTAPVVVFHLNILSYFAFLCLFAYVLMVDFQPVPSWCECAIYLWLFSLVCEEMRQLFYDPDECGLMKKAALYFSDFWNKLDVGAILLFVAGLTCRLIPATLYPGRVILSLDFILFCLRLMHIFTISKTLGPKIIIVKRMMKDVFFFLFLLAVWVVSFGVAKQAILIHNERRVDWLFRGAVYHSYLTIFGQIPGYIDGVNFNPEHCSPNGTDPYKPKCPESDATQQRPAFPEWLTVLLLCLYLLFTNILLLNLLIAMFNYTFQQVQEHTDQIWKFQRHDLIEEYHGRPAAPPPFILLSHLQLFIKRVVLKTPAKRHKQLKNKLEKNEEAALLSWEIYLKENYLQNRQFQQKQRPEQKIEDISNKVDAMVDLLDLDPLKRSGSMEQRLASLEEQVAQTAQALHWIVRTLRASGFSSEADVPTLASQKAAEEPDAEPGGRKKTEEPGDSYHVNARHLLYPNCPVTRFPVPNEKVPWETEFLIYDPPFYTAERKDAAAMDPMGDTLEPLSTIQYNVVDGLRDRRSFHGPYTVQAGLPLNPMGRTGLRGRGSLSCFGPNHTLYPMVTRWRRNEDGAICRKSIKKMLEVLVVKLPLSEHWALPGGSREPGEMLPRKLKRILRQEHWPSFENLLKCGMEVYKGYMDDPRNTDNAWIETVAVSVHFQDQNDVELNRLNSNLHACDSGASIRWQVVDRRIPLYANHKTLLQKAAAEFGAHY
Experimental: (§1) HEK293T cells were cultured in Dulbecco's modified Eagle culture medium under a 37° C., 5% CO2 environment, 10% fetal bovine serum, penicillin (100 U/mL), and streptomycin ([…]) was needed to add into the culture medium. Transient transfection was conducted by using Lipo 2000 (Invitrogen) transfection kit and following the instruction manual.
(§2) Electrophysiological experiment recordings were performed on the cells within 24˜48 h of transient transfections. Specifically, single channel electrophysiological recordings were performed within 8 h after transfection.
Measurement of the cell currents was respectively performed in the whole-cell recording mode, inside-out recording mode or outside-out recording mode with a HEKA EPC10 amplifier. In the whole cell electrophysiological recordings, glass microelectrodes made of borosilicate material were fire-polished to a original electrode resistance of about 3-6 MΩ. Serial resistance was compensated by 60%. The whole cell electrophysiological recordings were performed at ±80 mV. For single channel electrophysiological recordings, glass microelectrodes were fire-polished to a higher resistance of 6-8 MΩ2. Current signal was sampled at 10 kHz and filtered at 2.9 kHz. Membrane potential of the cell membrane would be clamped at +80 mV. All electrophysiological recordings were performed at room temperature (22° C.) (the maximum variation is 1° C.). […]

[1] = test system: Icilin-induced wet-dog shake behavior; assay: Icilin-induced wet-dog shake test; type: in vivo, mice
Experimental: (§3) Adult male CD1 mice (6-8 weeks old) were used as experimental animals for behavioral experiments and primary cultures of DRG neurons. Mice were raised in the condition of 12 h light/12 h dark of light cycle with adequate standard chow and water. All animal protocols were approved by the Institutional Animal Care and Use Committee (IACUC) of Zhejiang University.
At least 6 adult male CD1 mice were prepared for experimental or control groups. The animals were pretreated with Vehicle or DeC-1.2 of gradient dose via intravenous injection (i.v.) at 30 min before icilin (intraperitoneal injection, i.p., 2.5 μg/g body weight) treatment. Wet dog shake behavior was recorded and counted for 30 min following icilin administration.

[2] = test system: oxaliplatin-induced cold allodynia; assay: Oxaliplatin-induced cold allodynia, acetone evaporating cold test; type: in vivo, mice; details: 3.5 μg/20 μL intraplantar, day 10 after oxaliplatin
Experimental: as §3
All of mice were habituated to the behavioral testing environment for 1-to-2 hours in 2-to-3 days before the behavioral testing. Single intraperitoneal (i.p.) injection of oxaliplatin (6 mg/kg body weight) was given to generate chemotherapy-induced neuropathic pain. Neuropathic pain behaviors were tested about 10 days after oxaliplatin injection.
Acetone-induced evaporating cold test was used to assess the oxaliplatin-induced cold allodynia. 50 μL acetone was gently splashed to the hind-paw plantar of oxaliplatin-treated mice via a syringe attached with plastic tube. The time spent in withdrawing, flinching or licking the stimulated paw was recorded and blindly counted during 5 min after acetone treatment. The cold allodynia behavior of mice was respectively measured on day 10 pre- or post-treatment with oxaliplatin, Vehicle or 3.5 μg/20 μL DeC-1.2 was intraplantarly injected to assess its analgesic effect on oxaliplatin-induced allodynia.

[3] = test system: CCI-induced static allodynia; assay: Chronic constriction injury (CCI) model of neuropathic pain: static allodynia; type: in vivo; details: CCI rats
From the text: Male Sprague Dawley rats (purchased from Shanghai SLAC Laboratory Animals, LLC, 7 weeks old at the beginning of the experiment, n=7-10 per treatment) were used. CCI status was formed according to the method of Bennett G J and Xie Y K (Pain 1988, 33:87-107). Rats were anesthetized by intraperitoneal injection of sodium pentobarbital. The left common sciatic nerve was made to be exposed in the middle of the thigh in a state deprived of adherent tissue, and 4-0 silk thread (Ethicon Inc.) was utilized around it and four passes were loosely ligated at intervals of approximately 1 mm. Sham surgery was performed in the same manner except for sciatic nerve ligation. CCI surgery was performed after 2-3 weeks as described in Field M J et al. (Pain 1999, 83:303-311) documented, static allodynia was evaluated by Von Frey Hairs (VFH). Before starting the experiment, the experimental animals were acclimatized to the grid bottom cage. […] Each VFH was pressed against the phasic paw for 6 seconds, or until a withdrawal response occurred. When one withdrawal response occurred, the experiment was repeated by pressing the VFH at a weaker pressure until no withdrawal response occurred. The minimum pressure required to induce a response was recorded as a withdrawal paw threshold (PWT). If the experimental animal responded below an innocuous 1.4 g VFH, it was determined to be in static allodynia. […]

TRPM8 = TRPM8 (Mus musculus, UniProt Q8R4D5); assay: Inside-out single-channel recording of menthol-activated TRPM8 at +80 mV; type: cell-based; design: expressed in transfected cells; host or cells: HEK293T
Sequence of TRPM8 (Q8R4D5 whole entry): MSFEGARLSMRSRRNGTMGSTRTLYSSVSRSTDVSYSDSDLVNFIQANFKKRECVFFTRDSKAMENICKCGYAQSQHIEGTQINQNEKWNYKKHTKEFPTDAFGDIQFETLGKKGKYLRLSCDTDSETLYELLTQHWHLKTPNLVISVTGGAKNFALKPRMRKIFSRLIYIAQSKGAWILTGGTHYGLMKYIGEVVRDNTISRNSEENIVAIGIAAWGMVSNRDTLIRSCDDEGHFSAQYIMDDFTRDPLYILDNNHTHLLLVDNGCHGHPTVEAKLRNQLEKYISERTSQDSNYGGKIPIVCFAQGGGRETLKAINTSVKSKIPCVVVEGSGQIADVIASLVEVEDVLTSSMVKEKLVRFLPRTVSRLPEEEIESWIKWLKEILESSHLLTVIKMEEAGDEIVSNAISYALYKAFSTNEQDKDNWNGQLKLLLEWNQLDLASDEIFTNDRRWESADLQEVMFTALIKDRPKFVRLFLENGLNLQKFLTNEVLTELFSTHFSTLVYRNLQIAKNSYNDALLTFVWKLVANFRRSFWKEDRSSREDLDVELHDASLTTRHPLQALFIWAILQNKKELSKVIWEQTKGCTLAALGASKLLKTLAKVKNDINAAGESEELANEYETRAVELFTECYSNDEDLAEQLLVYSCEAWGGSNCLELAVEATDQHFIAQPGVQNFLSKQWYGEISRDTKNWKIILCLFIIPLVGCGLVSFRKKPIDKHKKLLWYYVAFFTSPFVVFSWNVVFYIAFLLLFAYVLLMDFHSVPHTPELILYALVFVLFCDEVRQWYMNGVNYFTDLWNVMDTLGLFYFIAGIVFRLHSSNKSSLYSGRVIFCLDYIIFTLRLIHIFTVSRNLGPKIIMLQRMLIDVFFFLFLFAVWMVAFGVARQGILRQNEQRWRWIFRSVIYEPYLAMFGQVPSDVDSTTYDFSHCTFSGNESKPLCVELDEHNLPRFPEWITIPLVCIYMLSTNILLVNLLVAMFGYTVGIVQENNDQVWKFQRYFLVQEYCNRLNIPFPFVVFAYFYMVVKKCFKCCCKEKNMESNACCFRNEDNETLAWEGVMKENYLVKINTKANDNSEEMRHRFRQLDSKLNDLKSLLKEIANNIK
Experimental: as §1, §2
Measurement of the cell currents was respectively performed in the whole-cell recording mode, inside-out recording mode or outside-out recording mode with a HEKA EPC10 amplifier. In the whole cell electrophysiological recordings, glass microelectrodes made of borosilicate material were fire-polished to a original electrode resistance of about 3-6 MΩ. Serial resistance was compensated by 60%. The whole cell electrophysiological recordings were performed at ±80 mV. For single channel electrophysiological recordings, glass microelectrodes were fire-polished to a higher resistance of 6-8 MΩ2. Current signal was sampled at 10 kHz and filtered at 2.9 kHz. Membrane potential of the cell membrane would be clamped at +80 mV. All electrophysiological recordings were performed at room temperature (22° C.) (the maximum variation is 1° C.).
There were different bath and pipette solutions prepared for different ion channels current measurement. For ion channels such as TRPM8, TRPV1, TRPV2, TRPV3 and TRPA1, the formula of the bath and pipette solutions was: 130 mM NaCl, 0.2 mM EDTA and 3 mM HEPES, pH=7.2. For the current measurement of TRPM4 ion channel, the formula of the bath solution was: 130 mM NaCl and 3 mM HEPES, pH=7.2, and the formula of the pipette solution was: 500 μM CaCl2), 130 mM NaCl and 3 mM HEPES, pH=7.2. For the current measurement of TRPM2 ion channel, the formula of the bath solution was: 147 mM NaCl, 2 mM KCl, 1 mM MgCl2, 10 mM HEPES, 2 mM CaCl2) 13 mM Glucose, pH=7.4, and the formula of the pipette solution was: 147 mM NaCl, 1 mM MgCl2, 10 mM HEPES, pH=7.4. For the current measurement of Nav1.5, Nav1.7 ion channels, the formula of the bath solution was: 140 mM NaCl, 3 mM KCl, 1 mM MgCl2, 1 mM CaCl2), 10 mM HEPES, pH=7.2 and the formula of the pipette solution was: 140 mM CsF, 1 mM EGTA, 10 mM NaCl, 10 mM MgCl2, 3 mM KCl, pH=7.2. To evoke sodium channel current, the membrane potential was increased from −80 mV to +10 mV.
A rapid solution changer with a gravity-driven perfusion system (RSC-200, BioLogic) was used to rapidly perfuse specific solutions into the cells to be tested. Each solution was delivered through a separate tube so that there is no mixing of solutions. The glass microelectrode with a membrane patch was placed directly below the outlet of the perfusion tube during the electrophysiology recordings.

C[C@@H]1NC(=O)[C@H](CCCNC(=N)N)NC(=O)[C@H](CC(=O)O)NC(=O)[C@H](CCCNC(=N)N)NC(=O)[C@H](CCCNC(=N)N)NC(=O)[C@@H](N)CSSC[C@@H](C(=O)O)NC(=O)[C@H](CCCNC(=N)N)NC(=O)[C@H](CCC(N)=O)NC(=O)[C@H](CCCNC(=N)N)NC(=O)[C@H](Cc2ccc(O)cc2)NC(=O)[C@H](Cc2c[nH]cn2)NC(=O)[C@H](CCCNC(=N)N)NC1=O [DeC-1.2, CRRDRARHYRQRC] (HELM PEPTIDE1{C.R.R.D.R.A.R.H.Y.R.Q.R.C}$PEPTIDE1,PEPTIDE1,1:R3-13:R3$$$V2.0; N-terminus and C-terminus assumed)
IC50 (TRPM2): > 100 µM
block of ligand activation of TRPM2 (TRPM2; DeC-1.2 up to 100 μM): not blocked
inhibition of WSD behaviors induced by icilin ([1]; 0.3 μg/g body weight i.v., 30 min before icilin): significantly inhibit
reduction of WDS behavior in icilin treated mice ([1]; 30 μg/g body weight i.v.): largely reduce WDS behavior
dose dependence of inhibition of icilin-induced wet-dog shakes ([1]; gradient dose i.v.): dose-dependently significantly reduces; also recorded: significantly dose-dependent
cold pain behavior induced by acetone evaporation (acetone score) [2]: significantly improved the cold pain behavior
activity against static allodynia (von Frey hairs) [3]: exhibited strong activity
open probability of TRPM8 (TRPM8; DeC-1.2 100 μM with saturated menthol (1 mM), n=5): 18.83±1.92%
change of single-channel conductance of menthol-activated TRPM8 (TRPM8; DeC-1.2 100 μM, menthol 1 mM): decreases significantly
change of open probability of menthol-activated TRPM8 (TRPM8; DeC-1.2 100 μM, menthol 1 mM, P<0.0001): decreases significantly
